Results: patent publication US20080004320A1, “Remedy for Glomerular Disease” (Kowa Co., Ltd., priority 2004, published 2008)
Where a name gives a salt, the structure may show the parent alone.

Test system: ⅚ nephrectomized rats
Test: Effect on ⅚ nephrectomized rat (progressive renal failure model)
Assay type: in vivo
Conditions: for death due to renal failure, compared with control group (FIG. 1): until week 15 after initiation of drug administration; for glomerulosclerosis score compared with control group (in words) / Glomerulosclerosis (score): week 15 after initiation of drug administration; for Glomerulosclerosis (score): average score of 50 glomeruli per renal tissue piece, male SD rats
From the text: Fifty-one male SD rats (seven weeks old, purchased from Japan SLC, Inc.) were anesthetized with pentobarbital, and the left kidney of each rat was exposed. Under a stereoscopic microscope, two of the left renal artery branches (generally, one renal artery is separated into three branches) were ligated and one central branch was left intact. When a renal artery branch is ligated, a portion controlled by the branch falls into ischemia, and such an ischemic renal portion can be visually detected. One week later, the right kidney was removed. That is to say, ⅚ of the kidneys was removed. Four weeks after surgery, blood was collected from each rat under unanesthetized conditions, and plasma creatinine level (Pcr) was measured. Pcr is a blood parameter indicative of renal function, and an increase in Pcr indicates impairment of renal function. After Pcr measurement, rats with considerably impaired renal function and rats with no impairment of renal function were eliminated, to thereby select 36 rats employed for the test.
Subsequently, on the basis of the thus-obtained Pcr data, these rats were divided into four groups in such a manner that the value of Pcr was averaged out among each group: control group (i.e., no drug administration group) (N=9); pyridoxamine dihydrochloride administration group (administered in the form of aqueous solution (1.5 g/L)) (N=9); candesartan cilexetil administration group ((1 mg/kg) administered orally once a day) (N=9); and combined administration group (pyridoxamine dihydrochloride administered in the form of aqueous solution (1.5 g/L), and candesartan cilexetil (1 mg/kg) administered orally once a day) (N=9). In addition to these four groups, one normal rat group non-surgical group, was provided.
Pyridoxamine dihydrochloride was dissolved in purified water, and the aqueous solution was available to the rats ad libitum. The daily dose of pyridoxamine dihydrochloride was about 100 mg/kg Candesartan cilexetil was suspended in 0.5% methyl cellulose sodium solution upon use, and the suspension was repeatedly orally administered.
Drug administration was initiated at week five after surgery (Pcr was about 1.5 mg/dL at the start of drug administration; i.e., renal function had already been impaired).
After initiation of drug administration, the number of surviving rats was recorded every day. Per was measured at week two, week four, week seven, week 11, and week 15 after initiation of drug administration. Urinary total protein excretion was measured at week four, week seven, week 11 and week 15 after initiation of drug administration (each measurement was performed after 18-hour urine accumulation). In addition, at week 15 after initiation of drug administration, systolic blood pressure was measured under unanesthetized conditions by means of a noninvasive blood pressure measuring apparatus.
At week 15 after initiation of drug administration, the renal tissue of each rat was observed, and the degree of glomerulosclerosis was evaluated on the basis of the below-described score. […] As used herein, the term “score” refers to the degree of glomerulosclerosis; i.e., the degree of hyperplasia of mesangial matrix in glomeruli. […] Score 0 was assigned to a glomerulus similar to that of rats in the normal rat group; score 1 was assigned to a glomerulus in which the area of mesangial matrix accounts for less than 25%; score 2 was assigned to a glomerulus in which the area of mesangial matrix accounts for 25% or more and less than 50%; score 3 was assigned to a glomerulus in which the area of mesangial matrix accounts for 50% or more and less than […]; and score 4 was assigned to a glomerulus in which the area of mesangial matrix accounts for 75% or more. The average of the thus-obtained scores of the glomeruli was employed for evaluation of glomerulosclerosis.

Row | Compound | death due to renal failure, compared with control group (FIG. 1) | glomerulosclerosis score compared with control group (in words) | Glomerulosclerosis (score)
1 | Cc1ncc(CO)c(CN)c1O [Pyridoxamine dihydrochloride, 4-(aminomethyl)-5-hydroxy-6-methyl-3-pyridinemethanol] | tendency for suppression of death due to renal failure was observed | no reduction in score was observed | 1.93 ± 0.35
2 | CCOc1nc2cccc(C(=O)OC(C)OC(=O)OC3CCCCC3)c2n1Cc1ccc(-c2ccccc2-c2nnn[nH]2)cc1 (stereo not drawn) [Candesartan cilexetil, 1-(cyclohexyloxycarbonyloxy)ethyl 2-ethoxy-1-[2′-(1H-tetrazol-5-yl)biphenyl-4-ylmethyl]-1H-benzimidazole-7-carboxylate] | tendency for suppression of death due to renal failure was observed | reduction in score was observed | 1.52 ± 0.45
